Assay results as given in patent US11242344B2, “(4-hydroxypyrrolidin-2-yl)-heterocyclic compounds and methods of use thereof” (Genentech, Inc., priority 2017, dated 2022).

Legend:
[1] = target: BRD4 (Homo sapiens (Human), UniProt O60885); assay: BRD4 degradation assay in EOL-1 cells, high content fluorescence imaging; format: cell-based; conditions: 4 hours; for DC50: BRD4 immunofluorescence, read-out: EOL-1 EC50
Procedure: PC3 (Steap-1) prostate cancer cells: PC3 (Steap-1) prostate cancer cells (PC3 cells overexpressing the surface protein Steap-1) were seeded on day 1 at a density of 200,000 cells/mL in 45 μl/well in cell plates in a 384 well Greiner/Perkin Elmer Cell Carrier TC Treated plate (part #6007430) in Assay Medium (RPMI, 10% FBS, 2 mM Glutamax). Cells were incubated overnight at 37° C. degrees. On day 2, compounds were serially diluted 3-fold in DMSO spanning the concentrations 10 mM to 8.6 nM, in 384 well clear polypropylene plates (Greiner Cat #781201). DMSO and 10 mM of a control PROTAC (dBET1, as described in WO 2017/024317, p. 235, structure below) (control compound) were added to designated wells. Compounds and controls were diluted 50-fold (2 μl of DMSO stock into 98 μl) into Assay Medium. 5 μl of the diluted compounds was transferred to the cell plates. The final top concentration of the test compounds in the cell plates was 20 μM. Cell plates were incubated at 37° C., for 4 hours. Fixation and permeabilization were carried out using a Biotek EL406 plate washer and dispenser as follows. Cells were fixed by addition of 15 μL of 16% paraformaldehyde (Electron Microscopy Sciences #15710-S) directly to the 50 μL cell culture medium in each well using the peristaltic pump 5 μL cassette on a Biotek EL406 (final concentration of formaldehyde was 3.7% w/v). Samples were incubated 30 minutes. Well contents were aspirated and 50 μL/well of Phosphate Buffered Saline (PBS) containing 0.5% w/v bovine serum albumen, 0.5% v/v Triton X-100 (Antibody Dilution Buffer) was added to each well. Samples were incubated for 30 minutes. Well contents were aspirated and washed 3 times with 100 μL/well of PBS.
EOL-1 cells: The BRD4 degradation assay was performed on EOL-1 cells using the same procedure as described above for PC3 (Steap-1) prostate cancer cells, except EOL-1 cells were seeded at 1,000,000 cells/mL. Following aspiration and washing of the well contents with 100 μL/well of PBS, 40 μL PBS plus 10% normal goat serum was added per well for 20 minutes at room temperature.
For both the PC3 and EOL-1 cell assays, immunofluorescence staining of BRD4 was carried out using a Biotek EL406 plate washer and dispenser as follows. The well supernatant was aspirated from the wells and 25 μL/well of rabbit mAb Anti-BRD4 [EPR5150(2)] abeam 128874 diluted 1:500 in Antibody Dilution Buffer is dispensed. Samples were incubated for 2 hours at room temperature. Samples were washed 4 times with 100 μL/well of PBS. 25 μL/well of secondary antibody solution (Goat Anti-Rabbit IgG, DyLight 488 Conjugated Highly Cross-adsorbed #35553 1:1000) diluted 1:1000 and Hoechst 33342 1 μg/ml diluted in Antibody Dilution Buffer) were dispensed into each well. 16 wells of the plate, which were designated as ‘no primary antibody” wells, received only Antibody Dilution Buffer (without anti-BRD4 antibody). Samples were incubated for 2 hours at room temperature. Samples were washed 3 times with 100 μL/well of PBS using a Biotek EL406. Quantitative fluorescence imaging of BRD4 was carried out using a Phenix (Perkin Elmer). Fluorescence images of the samples (Channel 1: Hoechst33342 (DNA stain); Channel 2: 488 nm (BRD4 stain)) were acquired. Channel 1 (DNA stain) was used to define the “Region of Interest” (ROI) nuclear region. Measurements of BRD4 average immunofluorescence intensity within the ROI (nuclear region), were made on a per cell basis and averaged over all the measured cells. Data analysis was carried out using Genedata Screener Software, with DMSO and “no primary antibody” samples being used to define the 0% and 100% changes in BRD4. The “Robust Fit” method was used to define the inflexion point of curve (EC50) and the plateau of the maximal effect (Sinf). The Sinf value reports degradation as percent change in protein level, so complete loss of the protein target is −100%. […]

[2] = target: VHL Elongin B/C complex (Homo sapiens (Human), UniProt P40337); assay: Fluorescence Polarization (FP) VHL Binding Assay; conditions: VHL binding, FP assay; geometric mean where more than one measurement
VHL Elongin B/C complex, sequence (P40337 whole entry, looked up): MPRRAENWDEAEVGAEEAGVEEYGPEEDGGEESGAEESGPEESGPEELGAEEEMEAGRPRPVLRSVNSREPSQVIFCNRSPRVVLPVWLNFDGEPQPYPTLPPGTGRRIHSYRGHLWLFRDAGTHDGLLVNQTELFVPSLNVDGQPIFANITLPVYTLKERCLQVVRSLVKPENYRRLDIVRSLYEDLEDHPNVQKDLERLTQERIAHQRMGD
VHL Elongin B/C complex, sequence (Q15370 whole entry partner, looked up): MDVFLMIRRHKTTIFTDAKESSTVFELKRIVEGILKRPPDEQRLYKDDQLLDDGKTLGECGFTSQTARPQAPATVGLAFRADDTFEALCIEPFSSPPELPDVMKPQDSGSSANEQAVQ
VHL Elongin B/C complex, sequence (Q15369 whole entry partner, looked up): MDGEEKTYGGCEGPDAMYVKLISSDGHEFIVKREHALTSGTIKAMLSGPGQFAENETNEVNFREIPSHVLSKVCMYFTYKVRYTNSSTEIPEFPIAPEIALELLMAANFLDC
Outline: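 FP tracer competition using His6-tagged human VHL (E55-D213) co-expressed with Elongin B and C in E. coli, final 2.64 nM, with TAMRA-labelled VHL ligand probe at 1.67 nM final. Buffer 50 mM Tris pH 8.0, 120 mM NaCl, 0.005% NP-40, 1% DMSO; 1 h at room temperature. Pre-assay compound/protein signal subtracted; IC50 from four-parameter fit.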

Row | DC50 [1] | IC50 [2] | EOL-1 Sinf (%) ([1]; maximum degradation, percent change in protein level (-100% = complete loss)) | Structure (SMILES)
1 | > 20 µM | 16.9 µM | – | Cc1ncsc1-c1ccc([C@]2(C)NC(C3C[C@@H](O)CN3C(=O)C(c3cc(OCCCCCNC(=O)c4cc5c(cc4CS(C)(=O)=O)-c4cn(C)c(=O)c6[nH]cc(c46)CN5c4ncc(F)cc4F)no3)C(C)C)=NC2=O)cc1 (single isomer, unassigned) [Example 1001.1]
2 | > 20 µM | 255 µM | – | Cc1ncsc1-c1ccc([C@]2(C)NC(C3C[C@@H](O)CN3C(=O)[C@@H](NC(=O)CCCCCCCCCCNC(=O)c3cc4c(cc3CS(C)(=O)=O)-c3cn(C)c(=O)c5[nH]cc(c35)CN4c3ncc(F)cc3F)C(C)(C)C)=NC2=O)cc1 (single isomer, unassigned) [Example 1005.1]
3 | > 20 µM | > 100 µM | – | Cc1ncsc1-c1ccc([C@]2(C)NC(C3C[C@@H](O)CN3C(=O)C(c3cc(OCCCCCNC(=O)c4cc5c(cc4CS(C)(=O)=O)-c4cn(C)c(=O)c6[nH]cc(c46)CN5c4ncc(F)cc4F)no3)C(C)C)=NC2=O)cc1 (single isomer, unassigned) [Example 1001.3]
4 | 0.000865 µM | 0.795 µM | −96.4% | Cc1ncsc1-c1ccc([C@]2(C)NC(C3C[C@@H](O)CN3C(=O)C(c3cc(OCCCCCNC(=O)c4cc5c(cc4CS(C)(=O)=O)-c4cn(C)c(=O)c6[nH]cc(c46)CN5c4ncc(F)cc4F)no3)C(C)C)=NC2=O)cc1 (single isomer, unassigned) [Example 1001.2]
